# Assays:
# Assay type in all cases: cell-based
# [1] = tested on: NF-κB; assay: Measurement of NF-κB activation using THP1-Blue NF-κB cells (SEAP reporter, LPS as primary stimulus); settings: for NF-κB % Activation / activity at 5 µM: compound 5 μM + LPS, 20 hour incubation, two point normalized: compound 1 + LPS = 200%, LPS = 100%, mean
# Summary of the method: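 THP1-Blue NF-κB cells (10^5/well, RPMI + 10% FBS) were co-treated with LPS 10 μg/mL and compound 5 μM (final, […]) for 20 h. Supernatant SEAP was read by QuantiBlue colorimetry at 630 nm. Two-point normalization set LPS alone to 100% and compound 1+LPS to 200%.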
# [2] = tested on: ISRE; assay: Measurement of ISRE activity in ISRE-bla THP-1 cells (FRET, IFN-α as primary stimulus); settings: for ISRE % Activation / activity at 5 µM: compound 5 μM + IFN-α 100 U/mL, 16 hours, two point normalized: compound 1 + IFN-α = 200%, IFN-α = 100%, mean; for activity at 5 µM: Homo sapiens, THP-1, read-out: ISRE % Activation; for ISRE activity (in words): with IFN-α
# Summary of the method: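 Cells at 5×10^4/well in RPMI with 10% dialyzed FBS, treated with compound at 5 μM (0.05% DMSO) plus IFN-α at 100 U/mL (final) for 16 h. CCF4-AM substrate added for 3 h at room temperature. Background-subtracted 465/535 nm emission ratio, 2-point normalized: IFN-α alone 100%, compound 1+IFN-α 200%.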
# [3] = tested on: THP-1 cells; assay: Cell viability assay (MTT); settings: compound 5 μM, 18 hours incubation; normalized to DMSO as 100%; mean
# Summary of the method: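 Cells at 10^5/well in RPMI with 10% FBS were exposed to compound at 5 μM final (0.05% DMSO) for 18 h. MTT (0.5 mg/mL) then added for 4-6 h, cells lysed overnight in SDS/HCl, absorbance read at 570 nm against 650 nm reference.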
# [4] = tested on: NF-κB and ISRE; assay: NF-κB and ISRE reporter assays (primary screens), statements in words for both assays; settings: with LPS or IFN-α as primary stimulus; compared to compound 1
# Summary of the method: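 Single 5 μM compound (0.05% DMSO). NF-κB: THP1-Blue cells with 10 μg/mL LPS, 20 h, SEAP by absorbance at 630 nm. ISRE: ISRE-bla THP-1 cells with 100 U/mL IFN-α, 16 h, CCF4-AM 465/535 nm ratio. Both normalized to stimulus alone as 100%, compound 1 plus stimulus as 200%.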
SMILES,NF-κB % Activation [1],ISRE % Activation [2],MTT % Viability [3],activity in NF-κB and ISRE assays (in words) [4],activity at 5 µM [1],activity at 5 µM [2],ISRE activity (in words) [2],NF-κB activity (in words) ([1]; with LPS)
"CCOc1ccc(S(=O)(=O)N(CCCO)c2cc(OC)c(Cl)cc2OC)cc1 [Compound 51, N-(4-chloro-2,5-dimethoxyphenyl)-4-ethoxy-N-(3-hydroxypropyl) benzenesulfonamide]",219%,178%,68.5%,retained activity in both the assays,–,–,–,–
"CNC(=O)c1ccc(S(=O)(=O)Nc2cc(OC)c(Cl)cc2OC)cc1 [Compound 30, 4-(N-(4-chloro-2,5-dimethoxyphenyl)sulfamoyl)-N-methylbenzamide]",–,–,77.0%,completely inactive,103%,105%,–,–
"CCOc1ccc(S(=O)(=O)N(CCCNC(=O)CCCC[C@H]2SC[C@H]3NC(=O)N[C@H]32)c2cc(OC)c(Cl)cc2OC)cc1 [Compound 58, N-(3-((N-(4-chloro-2,5-dimethoxyphenyl)-4-ethoxyphenyl)sulfonamido)propyl)-5-((3aR,4R,6aS)-2-oxohexahydro-1H-thieno[3,4-d]imidazol-4-yl)pentanamide]",195%,175%,69.6%,equipotent to compound 1,–,–,–,–
"C#CCN(c1cc(OC)c(N=[N+]=[N-])cc1OC)S(=O)(=O)c1ccc(OCC)cc1 [Compound 62, N-(4-azido-2,5-dimethoxyphenyl)-4-ethoxy-N-(prop-2-yn-1-yl) benzenesulfonamide]",217%,182%,73.4%,very potent,–,–,–,–
"CCOc1ccc(S(=O)(=O)Nc2cc(OC)c(Br)cc2OC)cc1 [Compound 7, N-(4-bromo-2,5-dimethoxyphenyl)-4-ethoxybenzenesulfonamide]",–,–,68.8%,retained activity,176%,235%,slightly skewed ISRE activity,–
"CCOc1ccc(S(=O)(=O)N(Cc2ccccc2)c2cc(OC)c(Cl)cc2OC)cc1 [Compound 46, N-benzyl-N-(4-chloro-2,5-dimethoxyphenyl)-4-ethoxybenzenesulfonamide]",–,–,71.7%,potent analogs,181%,159%,–,–
"COc1cc(NS(=O)(=O)c2ccccc2OC)c(OC)cc1Cl [Compound 24, N-(4-chloro-2,5-dimethoxyphenyl)-2-methoxybenzenesulfonamide]",–,–,92.1%,none of these molecules were active,96%,101%,–,–
"COc1cc(NS(=O)(=O)c2ccc(C(N)=O)cc2)c(OC)cc1Cl [Compound 27, 4-(N-(4-chloro-2,5-dimethoxyphenyl)sulfamoyl)benzamide]",–,–,91.0%,lost activity,103%,94%,–,–
"CCNC(=O)CCCN(c1cc(OC)c(Cl)cc1OC)S(=O)(=O)c1ccc(OCC)cc1 [Compound 54, 4-((N-(4-chloro-2,5-dimethoxyphenyl)-4-ethoxyphenyl)sulfonamido)-N-ethylbutanamide]",206%,137%,78.2%,retained activity,–,–,reduction in ISRE activity,retaining the NF-κB activity
